For 13 compounds, IC50 results are on record in US9884043B2, “RORgammaT inhibitors” (Merck Sharp & Dohme Corp., priority 2011, dated 2018).

The structures appear in SMILES notation.

By IC50 is commonly meant the concentration that gives 50% inhibition.

For the experiment, the target named is T1, HIS-tagged RORγ-LBD (Homo sapiens, UniProt P51449).
T1 construct: HIS-tagged RORγ-LBD was recombinantly expressed in SF9 cells using a baculovirus expression system; made in house; host or cells: SF9 cells, baculovirus; crude lysate used
T1 sequence (P51449 269-508 limits assumed): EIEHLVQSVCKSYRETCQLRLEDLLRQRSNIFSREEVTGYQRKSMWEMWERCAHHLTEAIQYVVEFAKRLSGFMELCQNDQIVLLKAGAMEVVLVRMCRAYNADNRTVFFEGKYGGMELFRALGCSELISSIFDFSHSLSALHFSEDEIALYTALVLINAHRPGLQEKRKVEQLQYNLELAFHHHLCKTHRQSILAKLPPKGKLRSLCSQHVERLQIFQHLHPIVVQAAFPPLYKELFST
Nature of the experiment: TR-FRET assay (Protocol B), RORγ-LBD lysate / biotinylated SRC1-2 LXXLL peptide. Conditions: unpurified RORγ-LBD lysate ~10 nM, SRC1-2 peptide 450 nM. The format is biochemical. The source says: Activation of RORgammaT activity can be measured using e.g. biochemical TR-FRET assay. In such an assay, interaction of cofactor-derived peptides with human RORgammaT-Ligand Binding Domain (LBD) can be measured.
To identify novel antagonists of RORgammaT, an assay was developed which employs the interaction of RORgammaT with its co-activator peptide SRC1_2. […] The assay was run following three slightly different protocols, i.e. Protocol A, Protocol B, and Protocol C, which are described below.
TR-Fret Assay (Protocol B)
HIS-tagged RORγ-LBD was recombinantly expressed in SF9 cells using a baculovirus expression system. The protein was not purified. Cells were lysed and the lysate was used as a source for RORγ-LBD for the assay. A 1:80 dilution of RORγ-LBD lysate in assay buffer (25 mM HEPES pH 7.0, 100 mM NaCl, 0.01% Tween, 0.1% BSA) was prepared and 5 μL was added to each well (RORγ-LBD final concentration ˜10 nM). Control wells received lysate from SF9 cells not expressing RORγ-LBD.
Compounds to be tested were diluted to 100× final test concentration in DMSO and further diluted to 4× final test concentration using assay buffer to provide the test compound mixture. An aliquot (5 μL) of the test compound mixture was added to each well.
`O=C(O)c1ccc(-c2nn(C(=O)c3c(Cl)cccc3C(F)(F)F)c3cccnc23)cc1O` [Example 26H, 4-(1-(2-chloro-6-(trifluoromethyl)benzoyl)-1H-pyrazolo[4,3-b]pyridin-3-yl)-2-hydroxybenzoic acid] yielded an IC50 below 50 nM.

As to `CC(C)c1cc(-c2nn(C(=O)c3c(Cl)cccc3C(F)(F)F)c3ccccc23)ccc1C(=O)O` [Example 24AP, 4-(1-(2-chloro-6-(trifluoromethyl)-benzoyl)-1H-indazol-3-yl)-2-isopropylbenzoic acid], the IC50 was in the range of 500 to 10000 nM.

In turn, `O=C(O)c1ccc(-c2nn(C(=O)c3c(Cl)cccc3C(F)(F)F)c3cc(C(=O)NCCCO)ccc23)c(F)c1` [Example 25M, 4-(1-(2-chloro-6-(trifluoromethyl)benzoyl)-6-(3-hydroxypropyl-carbamoyl)-1H-indazol-3-yl)-3-fluorobenzoic acid] gave an IC50 below 50 nM.

In the case of `CN(C)C(=O)c1ccc2c(-c3ccc(C(=O)O)c(O)c3)nn(C(=O)c3c(Cl)cccc3C(F)(F)F)c2c1` [Example 26J, 4-(1-(2-chloro-6-(trifluoromethyl)benzoyl)-6-(dimethyl-carbamoyl)-1H-indazol-3-yl)-2-hydroxybenzoic acid], the IC50 is below 50 nM.

In turn, `O=C(O)c1ccc(-c2nn(C(=O)c3c(Cl)cccc3C(F)(F)F)c3cc(C(=O)NCCCCO)ccc23)cc1` [Example 25P, 4-(1-(2-chloro-6-(trifluoromethyl)benzoyl)-6-(4-hydroxybutyl-carbamoyl)-1H-indazol-3-yl)benzoic acid] had an IC50 below 50 nM.

Compound `COc1cc(C(=O)O)cc(OC)c1-c1nn(C(=O)c2c(Cl)cccc2C(F)(F)F)c2cccc(F)c12` [Example 24T, 4-(1-(2-chloro-6-(trifluoromethyl)-benzoyl)-4-fluoro-1H-indazol-3-yl)-3,5-dimethoxybenzoic acid] yielded an IC50 above 10000 nM.

In turn, `O=C(O)Cc1cccc(-c2nn(C(=O)c3c(Cl)cccc3C(F)(F)F)c3cccc(F)c23)c1` [Example 24F, 2-(3-(1-(2-chloro-6-(trifluoromethyl)-benzoyl)-4-fluoro-1H-indazol-3-yl)phenyl)acetic acid] displayed an IC50 of 500 to 10000 nM.

For the compound `CN(C)C(=O)c1ccc2c(-c3ccc(C(=O)O)cc3Cl)nn(C(=O)c3c(Cl)cccc3C(F)(F)F)c2c1` [Example 25J, 3-chloro-4-(1-(2-chloro-6-(trifluoromethyl)benzoyl)-6-(dimethyl-carbamoyl)-1H-indazol-3-yl)benzoic acid], the IC50 is below 50 nM.

`O=C(O)c1cc(F)c(-c2nn(C(=O)c3c(Cl)cccc3C(F)(F)F)c3cccnc23)cc1F` [Example 24AK, 4-(1-(2-chloro-6-(trifluoromethyl)-benzoyl)-1H-pyrazolo[4,3-b]pyridin-3-yl)-2,5-difluorobenzoic acid] had an IC50 below 50 nM.

Turning to `COc1cc(F)c2c(-c3ccc(C(=O)O)cc3)nn(C(=O)c3c(Cl)cccc3C(F)(F)F)c2c1` [Example 24AZ, 4-(1-(2-chloro-6-(trifluoromethyl)-benzoyl)-4-fluoro-6-methoxy-1H-indazol-3-yl) benzoic acid], the IC50 was in the range of 50 to 500 nM.

For `O=C(O)c1ccc(-c2nn(C(=O)c3c(Cl)cccc3C(F)(F)F)c3cc(Br)cc(F)c23)cc1` [Example 24AX, 4-(6-bromo-1-(2-chloro-6-(trifluoromethyl)-benzoyl)-4-fluoro-1H-indazol-3-yl) benzoic acid], the IC50 was below 50 nM.

Consider `O=C(O)c1cc(F)c(-c2nn(C(=O)c3c(Cl)cccc3C(F)(F)F)c3cccc(F)c23)cc1Cl` [Example 24X, 2-chloro-4-(1-(2-chloro-6-(trifluoromethyl)-benzoyl)-4-fluoro-1H-indazol-3-yl)-5-fluorobenzoic acid], for which the IC50 fell in the range of 50 to 500 nM.

With `O=C(O)c1ccc(-c2nn(C(=O)c3c(Cl)cccc3C(F)(F)F)c3cccc(F)c23)c(O)c1` [Example 26E, 4-(1-(2-chloro-6-(trifluoromethyl)benzoyl)-4-fluoro-1H-indazol-3-yl)-3-hydroxybenzoic acid], the IC50 is below 50 nM.
